According to US8648076B2, “Cysteine protease inhibitors and their therapeutic applications” (Hybrigenics SA, priority 2005, dated 2014):
Like-named read-outs stand apart in the source and are kept apart here.

Legend:
USP5 = target: T1, USP5 (Homo sapiens, UniProt P45974); test: USP5 activity assay; format: biochemical; settings: 400 nM Ub-AMC, 300 pM enzyme, 30 min pre-incubation at 25° C., 60 min at 37° C.; sigmoidal fit; AF: Autofluorescent; read-out: USP 5 (inhibition of cysteine protease activity)
T1 sequence (P45974 1-858): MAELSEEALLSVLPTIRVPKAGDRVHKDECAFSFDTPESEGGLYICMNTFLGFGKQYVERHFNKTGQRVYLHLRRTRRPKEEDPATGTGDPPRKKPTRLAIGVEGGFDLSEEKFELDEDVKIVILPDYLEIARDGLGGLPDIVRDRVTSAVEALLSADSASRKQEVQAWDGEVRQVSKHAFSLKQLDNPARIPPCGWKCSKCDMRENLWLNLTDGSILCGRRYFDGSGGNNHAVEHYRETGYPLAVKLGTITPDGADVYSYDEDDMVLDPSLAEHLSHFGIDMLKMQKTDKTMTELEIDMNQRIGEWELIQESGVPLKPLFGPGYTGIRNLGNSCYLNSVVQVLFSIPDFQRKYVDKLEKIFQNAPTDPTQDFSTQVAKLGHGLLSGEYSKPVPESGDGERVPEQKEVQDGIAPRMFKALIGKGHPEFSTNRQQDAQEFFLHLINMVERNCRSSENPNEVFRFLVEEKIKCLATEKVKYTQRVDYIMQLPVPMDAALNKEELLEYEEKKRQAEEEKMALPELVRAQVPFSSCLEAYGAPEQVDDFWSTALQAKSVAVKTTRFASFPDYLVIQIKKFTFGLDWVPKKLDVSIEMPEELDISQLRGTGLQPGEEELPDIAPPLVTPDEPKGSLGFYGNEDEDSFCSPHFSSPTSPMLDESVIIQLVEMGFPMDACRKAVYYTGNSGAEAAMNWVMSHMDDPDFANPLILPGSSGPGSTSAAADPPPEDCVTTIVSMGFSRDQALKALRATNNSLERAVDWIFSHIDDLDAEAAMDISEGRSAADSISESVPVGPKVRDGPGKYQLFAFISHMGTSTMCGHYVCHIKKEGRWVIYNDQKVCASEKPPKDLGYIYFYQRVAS
Experimental: Bovine Serum Albumin 0.05 mg·ml^−1 pH7.6). Compounds stocks (100 mM) were stored at −20° C. in DMSO. […] Reactions were performed as duplicates in Black LJL 96 well plates (HE microplates; Molecular Devices; 20 μl final reaction volume). The substrate concentration for USP5 was 400 nM Ub-AMC (Boston Biochem). The concentrations of the enzyme (USP5) in specificity assays was 300 pM. The concentrations were determined in order to perform specificity assays under initial velocities at fixed substrate concentration. Compounds were pre-incubated with enzymes for 30 minutes at 25° C. Reactions were initiated by addition of substrate to the plates containing the enzymes (+/− compounds) diluted in assay buffer. Reactions were incubated for 60 minutes at 37° C. Reactions were stopped by adding acetic acid (100 mM final). Readings were performed on a Pherastar Fluorescent Reader (BMG). λ Emission 380 nm; λ Excitation=460 nm. Data (mean values +/− standard deviation) were analyzed as % of control (no compound) and plotted as percentage versus the Log of the compound concentration using GraphPad (Prism). Data were fitted to a sigmoidal model (variable slope).

[1] = system: HCT116 colon cancer cells; test: HCT116 cell viability and proliferation assay (MTS); format: cell-based; settings: Homo sapiens, read-out: HCT116 D3 GI50
Uch-L3 = target: T2, Uch-L3 (Homo sapiens, UniProt P15374); test: UCH-L3 activity assay; format: biochemical; settings: 400 nM Ub-AMC, 13 pM enzyme, 30 min pre-incubation at 25° C., 60 min at 37° C.; sigmoidal fit; AF: Autofluorescent; read-out: Uch-L3 (inhibition of cysteine protease activity)
T2 sequence (P15374 1-230): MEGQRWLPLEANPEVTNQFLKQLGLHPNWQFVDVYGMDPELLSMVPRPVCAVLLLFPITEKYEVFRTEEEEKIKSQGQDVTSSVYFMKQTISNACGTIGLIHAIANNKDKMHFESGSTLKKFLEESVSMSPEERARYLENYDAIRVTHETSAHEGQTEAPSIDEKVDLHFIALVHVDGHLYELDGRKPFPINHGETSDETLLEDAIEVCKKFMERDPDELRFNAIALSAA
Experimental: Bovine Serum Albumin 0.05 mg·ml^−1 pH7.6). Compounds stocks (100 mM) were stored at −20° C. in DMSO. […] Reactions were performed as duplicates in Black LJL 96 well plates (HE microplates; Molecular Devices; 20 μl final reaction volume). The substrate concentration for Uch-L3 was 400 nM Ub-AMC (Boston Biochem). The concentration of the enzyme (Uch-L3) in specificity assays was 13 pM. The concentrations were determined in order to perform specificity assays under initial velocities at fixed substrate concentration. Compounds were pre-incubated with enzymes for 30 minutes at 25° C. Reactions were initiated by addition of substrate to the plates containing the enzymes (+/−compounds) diluted in assay buffer. Reactions were incubated for 60 minutes at 37° C. Reactions were stopped by adding acetic acid (100 mM final). Readings were performed on a Pherastar Fluorescent Reader (BMG). δ Emission 380 nm; δ Excitation=460 nm. Data (mean values+/− standard deviation) were analyzed as % of control (no compound) and plotted as percentage versus the Log of the compound concentration using GraphPad (Prism). Data were fitted to a sigmoidal model (variable slope).

[2] = system: PC-3 prostate cancer cells; test: PC3 cell viability and proliferation assay (MTS); format: cell-based; settings: Homo sapiens, PC-3, 72 h, read-out: PC3 D3 GI50
USP7 = target: T3, USP7 (Homo sapiens, UniProt Q93009); test: USP7 activity assay; format: biochemical
T3 construct: His tag (from pFastBac-HT vector) (N); made in house; host or cells: insect cells (Sf9 or High Five), baculovirus
T3 sequence (Q93009 whole entry): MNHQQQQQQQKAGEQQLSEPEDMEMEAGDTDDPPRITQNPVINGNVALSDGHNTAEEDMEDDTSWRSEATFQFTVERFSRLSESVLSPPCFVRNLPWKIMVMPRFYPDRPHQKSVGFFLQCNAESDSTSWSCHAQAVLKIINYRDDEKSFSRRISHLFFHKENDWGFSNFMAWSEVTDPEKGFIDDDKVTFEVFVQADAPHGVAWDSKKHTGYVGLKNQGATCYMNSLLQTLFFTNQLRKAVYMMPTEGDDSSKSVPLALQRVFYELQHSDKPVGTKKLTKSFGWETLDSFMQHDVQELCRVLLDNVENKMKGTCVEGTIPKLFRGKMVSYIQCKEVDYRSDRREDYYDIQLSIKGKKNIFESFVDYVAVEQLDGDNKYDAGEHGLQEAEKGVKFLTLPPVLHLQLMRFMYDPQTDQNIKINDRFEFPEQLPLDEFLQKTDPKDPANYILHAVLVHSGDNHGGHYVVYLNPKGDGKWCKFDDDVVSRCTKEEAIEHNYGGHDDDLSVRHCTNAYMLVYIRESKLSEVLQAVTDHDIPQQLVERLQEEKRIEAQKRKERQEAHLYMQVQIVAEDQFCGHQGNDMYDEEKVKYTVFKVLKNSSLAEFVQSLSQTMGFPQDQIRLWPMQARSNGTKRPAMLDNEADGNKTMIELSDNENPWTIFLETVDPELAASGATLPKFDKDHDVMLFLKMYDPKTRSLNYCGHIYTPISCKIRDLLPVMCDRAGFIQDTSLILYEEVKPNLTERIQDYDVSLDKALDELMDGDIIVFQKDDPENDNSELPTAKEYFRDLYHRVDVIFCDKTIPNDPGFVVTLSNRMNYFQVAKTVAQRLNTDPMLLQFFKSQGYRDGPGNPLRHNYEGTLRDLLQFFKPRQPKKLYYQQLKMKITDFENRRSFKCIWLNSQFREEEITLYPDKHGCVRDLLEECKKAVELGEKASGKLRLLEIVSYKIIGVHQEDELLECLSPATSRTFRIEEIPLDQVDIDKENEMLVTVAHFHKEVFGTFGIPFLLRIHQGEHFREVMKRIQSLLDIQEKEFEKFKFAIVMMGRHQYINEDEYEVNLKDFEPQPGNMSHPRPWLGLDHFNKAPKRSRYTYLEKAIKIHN

[3] = HCT-116, HCT116 cells, 72 hours incubation, MTS, mean of 3 independent experiments
[4] = PC3 cells, 72 hours incubation, MTS, mean of 3 independent experiments
[5] = 400 nM Ub-AMC, 152 pM enzyme, 30 min pre-incubation at 25° C., 60 min at 37° C., sigmoidal fit, read-out: USP 7 (inhibition of cysteine protease activity)

Row | SMILES | IC50 (USP5) [nM] | GI50 [1, 3] [nM] | IC50 (Uch-L3) [nM] | GI50 [2, 4] [nM] | IC50 (USP7; [5]) [nM] | GI50 ([1]; HCT-116, 72 h) [nM] | GI50 [2] [nM] | IC50 (USP7) [nM]
1 | N#Cc1nc2c(nc1C#N)-c1ccccc1C2=O [Example 1, 9-oxo-9H-indeno[1,2-b]pyrazine-2,3-dicarbonitrile] | 1300 | 150 | 760 | 610 | 3500 | – | – | –
2 | COc1ccc2c(c1OC)C(=O)c1nc(C#N)c(C#N)nc1-2 [Example 17d, 7,8-Dimethoxy-9-oxo-9H-indeno[1,2-b]pyrazine-2,3-dicarbonitrile] | 2500 | 680 | 770 | 910 | 18000 | – | – | –
3 | N#Cc1nc2c(nc1C#N)-c1ccc(Cl)cc1C2=NOCCOc1ccccc1 [Example 27b, 7-Chloro-9-(2-phenoxy-ethoxyimino)-9H-indeno[1,2-b]pyrazine-2,3-dicarbonitrile] | > 100000 | – | 1700 | – | – | 294 | 259 | > 100000
4 | N#Cc1nc2c(nc1N)-c1ccccc1C2=O [Example 7, 3-amino-9-oxo-9H-indeno[1,2-b]pyrazine-2-carbonitrile] | > 100000 | > 10000 | 52000 | > 10000 | > 100000 | – | – | –
5 | N#Cc1nc2c(nc1C#N)-c1ccccc1C2=NOCc1ccccc1 (mixture of isomers) [Example 13C, 9-Benzyloxyimino-9H-indeno[1,2-b]pyrazine-2,3-dicarbonitrile] | > 100000 | 750 | > 100000 | 700 | > 100000 | – | – | –
6 | COc1ccc2c(c1)C(=O)c1nc(C#N)c(C#N)nc1-2 [Example 17i, 7-Methoxy-9-oxo-9H-indeno[1,2-b]pyrazine-2,3-dicarbonitrile] | 23000 | 560 | 3100 | 1270 | > 100000 | – | – | –
7 | Cc1c(F)ccc2c1C(=O)c1nc(C#N)c(C#N)nc1-2 [Example 30, 7-Fluoro-8-methyl-9-oxo-9H-indeno[1,2-b]pyrazine-2,3-dicarbonitrile] | 1610 | 705 | 339 | 854 | 2220 | – | – | –
8 | CON=C1c2ccccc2-c2nc(C#N)c(C#N)nc21 [Example 13a, 9-(methoxyimino)-9H-indeno[1,2-b]pyrazine-2,3-dicarbonitrile] | 19500 | – | 2200 | – | – | 390 | 430 | > 100000
9 | C=CCON=C1c2ccc(Cl)cc2-c2nc(C#N)c(C#N)nc21 [Example 27c, 9-Allyloxyimino-6-chloro-9H-indeno[1,2-b]pyrazine-2,3-dicarbonitrile] | 1700 | – | 502 | – | – | 421 | 803 | 3500
10 | N#Cc1nc2c(nc1CC(N)=O)-c1ccccc1C2=O [Example 26, 2-(2-cyano-9-oxo-9H-indeno[1,2-b]pyrazin-3-yl)-acetamide] | 60000 | – | 1600 | – | – | > 10000 | > 10000 | > 100000
11 | CCON=C1c2ccccc2-c2nc(C#N)c(C#N)nc21 (mixture of isomers) [Example 13d, 9-Ethoxyimino-9H-indeno[1,2-b]pyrazine-2,3-dicarbonitrile] | > 100000 | 1180 | 1300 | 1540 | > 100000 | – | – | –
12 | C=CCON=C1c2ccccc2-c2nc(C(N)=O)c(C#N)nc21 [Example 34a, 9-Allyloxyimino-2-cyano-9H-indeno[1,2-b]pyrazine-3-carboxylic acid amide] | 143 | – | 32 | – | – | 496 | 511 | 500
13 | CCc1ccc2c(c1)-c1nc(C#N)c(C#N)nc1C2=O [Example 32, 6-ethyl-9-oxo-9H-indeno[1,2-b]pyrazine-2,3-dicarbonitrile] | 1670 | – | 258 | – | – | 385 | 1430 | 2590
14 | Cc1cccc2c1C(=O)c1nc(C#N)c(C#N)nc1-2 [Example 17c, 8-Methyl-9-oxo-9H-indeno[1,2-b]pyrazine-2,3-dicarbonitrile] | 60000 | 390 | 2000 | 930 | > 100000 | – | – | –
15 | N#Cc1nc2c(nc1C#N)-c1ccc(O)cc1C2=O [Example 17j, 7-Hydroxy-9-oxo-9H-indeno[1,2-b]pyrazine-2,3-dicarbonitrile] | > 100000 | > 10000 | 8000 | > 10000 | 66000 | – | – | –
16 | N#Cc1nc2c(nc1C#N)-c1ccc(F)cc1C2=O [Example 17h, 7-Fluoro-9-oxo-9H-indeno[1,2-b]pyrazine-2,3-dicarbonitrile] | 1000 | 160 | 330 | 570 | 4300 | – | – | –
17 | CCSc1nc2c(nc1C#N)C(=O)c1ccccc1-2 [Example 23, 3-ethylsulfanyl-9-oxo-9H-indeno[1,2-b]pyrazine-2-carbonitrile] | > 100000 | > 10000 | 86000 | > 10000 | > 100000 | – | – | –
18 | N#Cc1nc2c(nc1C#N)-c1ccccc1/C2=N/Oc1ccccc1 [Example 13e, 9-Phenoxyimino-9H-indeno[1,2-b]pyrazine-2,3-dicarbonitrile] | 32000 | 540 | 540 | 530 | > 100000 | – | – | –
19 | N#Cc1nc2c(nc1C#N)-c1ccccc1C2=Nc1ccccc1 (mixture of isomers) [Example 14, 9-[phenylimino]-9H-indeno[1,2-b]pyrazine-2,3-dicarbonitrile] | 1900 | 430 | 390 | 510 | 4100 | – | – | –
20 | CON=C1c2ccccc2-c2nc(C(N)=O)c(C#N)nc21 [Example 34d, 2-Cyano-9-methoxyimino-9H-indeno[1,2-b]pyrazine-3-carboxylic acid amide] | 113 | – | 37 | – | – | 916 | 1200 | 396
